pIC50: −log10 of the molar value.
Legend:
[1] = target: T1, BRD4 Bromodomain 2 (BRD4 BD2) (Homo sapiens, UniProt O60885); test: AlphaScreen binding assay, BRD4 BD2; conditions: His-tagged BRD4 BD2 100 nM, biotinylated H4 (1-21) K5/8/12/16 tetra-acetylated peptide 100 nM, compounds listed under IC50 range headings
T1 construct: 333-460 were cloned, expressed, and purified to homogeneity
Summary of the method: (§1)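 An AlphaScreen competition format was used with His-BRD4 BD1 or BD2 and biotin-H4 K5/8/12/16-acetyl peptide, each at matched final levels of 50 nM (BD1) or 100 nM (BD2). Incubation in HEPES/NaCl buffer with 0.1% BSA and 0.01% Triton X-100 ran ≥1 h before IC50 determination.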

[2] = target: T2, BRD4 Bromodomain 1 (BRD4 BD1) (Homo sapiens, UniProt O60885); test: AlphaScreen binding assay, BRD4 BD1; conditions: His-tagged BRD4 BD1 50 nM, biotinylated H4 (1-21) K5/8/12/16 tetra-acetylated peptide 50 nM, compounds listed under IC50 range headings
T2 construct: 44-168 and BRD4 BD2
Summary of the method: as §1

[3] = system: acute myelocytic leukemia (AML) cell line MV4-11; test: Oncology cell growth assay (3-day proliferation, CellTiter-Glo); format: cell-based; conditions: Homo sapiens, MV4-11, 72 h, MV4-11 cells, 3000 cells/well, compounds listed under IC50 range headings, read-out: MV411 IC50 (gIC50, inhibition of proliferation)
Summary of the method: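 A 3-day proliferation test used MV4-11 cells seeded at 3000 per well with eight compound concentrations (10 μM top, 3-fold dilution) at 37° C in 5% CO2. CellTiter-Glo luminescence defined viable cell signal. A four-parameter logistic curve against DMSO and background wells gave the gIC50.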

Compound	pIC50 [1]	pIC50 [2]	pIC50 [3]
CCCOc1c(-c2cnn(C3CCNCC3)c2)ccc2c1CC[C@H](C)N2C(=O)C1CC1 [I-100, (S)-cyclopropyl(2-methyl-6-(1-(piperidin-4-yl)-1H-pyrazol-4-yl)-5-propoxy-3,4-dihydroquinolin-1(2H)-yl)methanone]	> 7.30	6.00 to 7.00	> 6.30
CCCOc1c(-c2cn3ccccc3n2)ccc2c1CC[C@H](C)N2C(C)=O [I-119, (S)-1-(6-(imidazo[1,2-a]pyridin-2-yl)-2-methyl-5-propoxy-3,4-dihydroquinolin-1(2H)-yl)ethanone]	6.30 to 7.30	5.00 to 6.00	6.00 to 6.30
COC(=O)N1c2ccc(-c3cnn(C4CCNCC4)c3)c(Oc3ccc(C#N)cc3F)c2CC[C@@H]1C [I-135, (S)-methyl 5-(4-cyano-2-fluorophenoxy)-2-methyl-6-(1-(piperidin-4-yl)-1H-pyrazol-4-yl)-3,4-dihydroquinoline-1(2H)-carboxylate]	> 7.30	6.00 to 7.00	> 6.30
COC(=O)N1c2ccc(-c3cnn(C4CCNCC4)c3)c(Oc3cccc(Cl)c3)c2CC[C@@H]1C [I-189, Methyl (S)-5-(3-chlorophenoxy)-2-methyl-6-(1-(piperidin-4-yl)-1H-pyrazol-4-yl)-3,4-dihydroquinoline-1(2H)-carboxylate]	> 7.30	6.00 to 7.00	> 6.30
CC(=O)N1c2ccc(-c3cnn(C4CCNCC4)c3)c(Oc3ccccc3)c2CC[C@@H]1C [I-201, (S)-1-(2-methyl-5-phenoxy-6-(1-(piperidin-4-yl)-1H-pyrazol-4-yl)-3,4-dihydroquinolin-1(2H)-yl)ethanone]	> 7.30	6.00 to 7.00	> 6.30
COC(=O)N1c2ccc(-c3cnn(C4CCNCC4)c3)c(Oc3ccc(F)cc3C#N)c2CC[C@@H]1C [I-133, (S)-methyl 5-(2-cyano-4-fluorophenoxy)-2-methyl-6-(1-(piperidin-4-yl)-1H-pyrazol-4-yl)-3,4-dihydroquinoline-1(2H)-carboxylate]	> 7.30	6.00 to 7.00	> 6.30
CC(=O)N1c2ccc(-c3cnn(C4CC4)c3)c(OCC(=O)N3CCC3)c2CC[C@@H]1C [I-7, (S)-2-(1-acetyl-6-(1-cyclopropyl-1H-pyrazol-4-yl)-2-methyl-1,2,3,4-tetrahydroquinolin-5-yloxy)-1-(azetidin-1-yl)ethanone]	6.30 to 7.30	6.00 to 7.00	> 6.30
CC(=O)N1c2ccc(-c3cnn(C4CC4)c3)c(Oc3cnccn3)c2CC[C@@H]1C [I-88, (S)-1-(6-(1-cyclopropyl-1H-pyrazol-4-yl)-2-methyl-5-(pyrazin-2-yloxy)-3,4-dihydroquinolin-1(2H)-yl)ethanone]	> 7.30	6.00 to 7.00	> 6.30
CC(=O)N1c2ccc(-c3cnn(C4CC4)c3)c(Oc3ccccc3F)c2CC[C@@H]1C [I-210, (S)-1-(6-(1-cyclopropyl-1H-pyrazol-4-yl)-5-(2-fluorophenoxy)-2-methyl-3,4-dihydroquinolin-1(2H)-yl)ethanone]	> 7.30	6.00 to 7.00	> 6.30

The next lines start with the values.

pIC50 [1]	pIC50 [2]	pIC50 [3]	Compound
> 7.30	6.00 to 7.00	> 6.30	CC(=O)N1c2ccc(-c3cnn(CC(C)(C)O)c3)c(Oc3ncc(F)cn3)c2CC[C@@H]1C [I-551]
6.30 to 7.30	6.00 to 7.00	> 6.30	C[C@H]1CCc2c(ccc(-c3cnn(C4CCNCC4)c3)c2Oc2ncccc2C#N)N1C(=O)C1CC1 [I-540]
6.30 to 7.30	6.00 to 7.00	> 6.30	CC(=O)N1c2ccc(-c3cnn(CC(C)(C)O)c3)c(OCC3CCCC3)c2CC[C@@H]1C [I-425]
> 7.30	6.00 to 7.00	> 6.30	CC(=O)N1c2ccc(-c3cnn(C4CC4)c3)c(Oc3cc(C)ccn3)c2CC[C@@H]1C [I-255, 1-[(2S)-6-(1-cyclopropyl-1H-pyrazol-4-yl)-2-methyl-5-[(4-methylpyridin-2-yl)oxy]-1,2,3,4-tetrahydroquinolin-1-yl]ethan-1-one]

From patent publication US10611750B2, “Tetrahydroquinoline compositions as bet bromodomain inhibitors” (FORMA Therapeutics, Inc., priority 2013, dated 2020)
